Target: T1, PLK4 (Homo sapiens, UniProt O00444)
T1 sequence (O00444 1-970): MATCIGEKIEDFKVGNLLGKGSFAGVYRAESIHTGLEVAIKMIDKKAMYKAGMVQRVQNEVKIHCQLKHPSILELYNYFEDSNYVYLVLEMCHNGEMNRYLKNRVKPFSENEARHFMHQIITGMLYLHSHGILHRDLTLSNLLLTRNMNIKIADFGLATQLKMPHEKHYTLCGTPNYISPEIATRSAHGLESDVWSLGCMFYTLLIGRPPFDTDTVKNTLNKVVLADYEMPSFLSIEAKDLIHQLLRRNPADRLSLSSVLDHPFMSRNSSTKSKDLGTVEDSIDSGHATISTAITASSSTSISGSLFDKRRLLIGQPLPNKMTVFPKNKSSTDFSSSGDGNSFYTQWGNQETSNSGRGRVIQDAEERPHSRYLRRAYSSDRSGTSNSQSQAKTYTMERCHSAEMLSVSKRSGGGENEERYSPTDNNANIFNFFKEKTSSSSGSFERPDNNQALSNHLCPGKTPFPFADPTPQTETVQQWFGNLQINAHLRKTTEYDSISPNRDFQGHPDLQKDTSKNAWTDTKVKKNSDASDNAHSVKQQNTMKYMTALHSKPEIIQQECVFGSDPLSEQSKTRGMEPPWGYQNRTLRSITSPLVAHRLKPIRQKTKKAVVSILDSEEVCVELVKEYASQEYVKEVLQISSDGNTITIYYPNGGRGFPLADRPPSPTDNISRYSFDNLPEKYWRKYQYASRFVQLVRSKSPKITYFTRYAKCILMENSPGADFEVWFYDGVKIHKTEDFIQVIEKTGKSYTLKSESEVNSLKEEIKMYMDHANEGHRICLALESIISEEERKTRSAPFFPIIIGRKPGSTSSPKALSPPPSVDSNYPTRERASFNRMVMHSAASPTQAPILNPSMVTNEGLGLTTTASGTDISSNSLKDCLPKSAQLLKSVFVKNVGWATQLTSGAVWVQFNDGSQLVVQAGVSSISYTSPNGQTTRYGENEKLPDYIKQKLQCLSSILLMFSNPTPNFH
Test: Activity (IC50) of the Table 1 compounds as PLK4 inhibitors
Type: biochemical
Conditions: Table 1, IC50 class

Row | Compound | IC50 [nM]
1 | Cc1cc(Nc2cc(C)[nH]n2)nc(Sc2ccc(NC(=O)C3CC3)cc2)n1 | < 100
2 | COc1c(Nc2cc(C)[nH]n2)nc(Sc2ccc(NC(=O)C3CC3)cc2)nc1N1CCCCC1 | < 100
3 | COc1c(Nc2cc(C)[nH]n2)nc(Sc2ccc(NC(=O)C3CC3)cc2)nc1NC(C)C | < 100
4 | CNc1nc(Sc2ccc(NC(=O)C3CC3)cc2)nc(Nc2cc(C)[nH]n2)c1OC | < 100
5 | COc1c(Nc2cc(C)[nH]n2)nc(Sc2ccc(S(=O)(=O)Cc3cccc(Br)c3F)cc2F)nc1N1CCCCC1 | < 100
6 | COc1c(Nc2cc(C)[nH]n2)nc(Sc2ccc(S(=O)(=O)C(F)c3cccc([N+](=O)[O-])c3F)cc2F)nc1N1CCN(CCN(C)C)CC1 (centres unmarked) | < 100
7 | COc1c(Nc2cc(C)[nH]n2)nc(Sc2ccc(S(=O)(=O)Cc3cccc(C#N)c3F)cc2F)nc1N1CCN(CCN(C)C)CC1 | < 100
8 | COc1c(Nc2cc(C)[nH]n2)nc(Sc2ccc(S(=O)(=O)Cc3cccc([N+](=O)[O-])c3F)cc2F)nc1N1CCCC[C@@H]1CO | < 100
9 | COc1c(Nc2cc(C)[nH]n2)nc(Sc2ccc(S(=O)(=O)Cc3cccc([N+](=O)[O-])c3F)cc2F)nc1N1CCC(CCN(C)C)CC1 | < 100
10 | COc1c(Nc2cc(C)[nH]n2)nc(Sc2ccc(S(=O)(=O)C(F)c3cccc([N+](=O)[O-])c3F)cc2F)nc1N1CCC(CCN(C)C)CC1 (centres unmarked) | < 100
11 | COc1c(Nc2cc(C)[nH]n2)nc(Sc2ccc(S(=O)(=O)C(C)(C)c3cccc([N+](=O)[O-])c3F)cc2F)nc1N1CCCCC1 | < 100
12 | COc1c(Nc2cc(C)[nH]n2)nc(Sc2ccc(S(=O)(=O)C(C)(C)c3cccc([N+](=O)[O-])c3F)cc2F)nc1N1CCN(CCN(C)C)CC1 | < 100
13 | COc1c(Nc2cc(C)[nH]n2)nc(Sc2ccc(S(=O)(=O)C(F)c3cccc([N+](=O)[O-])c3F)cc2F)nc1N1CCOC[C@@H]1CO (some centres unmarked) | < 100
14 | COc1c(Nc2cc(C)[nH]n2)nc(Sc2ccc(S(=O)(=O)C(F)(F)c3c(F)c(F)cc(F)c3F)cc2F)nc1N1CCOCC1 | < 100
15 | COc1c(Nc2cc(C)[nH]n2)nc(Sc2ccc(S(=O)(=O)C(C)(C)c3c(F)c(F)c(C)c(F)c3F)cc2F)nc1N1CCOCC1 | < 100
16 | COc1c(Nc2cc(C)[nH]n2)nc(Sc2ccc(S(=O)(=O)C(C)(C)c3c(F)c(F)c(C)c(F)c3F)cc2F)nc1N1CCN(CCN(C)C)CC1 | < 100
17 | COc1c(Nc2cc(C)[nH]n2)nc(Sc2ccc(S(=O)(=O)C(C)(C)c3cccc([N+](=O)[O-])c3F)cc2F)nc1N1CCC(CCN(C)C)CC1 | < 100
18 | COc1c(Nc2cc(C)[nH]n2)nc(Sc2ccc(S(=O)(=O)C(C)(C)c3cccc([N+](=O)[O-])c3F)cc2F)nc1N1CCOC[C@@H]1CO | < 100
19 | COc1c(Nc2cc(C)[nH]n2)nc(Sc2ccc(S(=O)(=O)C(C)(C)c3cccc(Cl)c3F)cc2F)nc1N1CCOCC1 | < 100
20 | COc1c(Nc2cc(C)[nH]n2)nc(Sc2ccc(S(=O)(=O)C(C)(C)c3cccc(Br)c3F)cc2F)nc1N1CCN(CCN(C)C)CC1 | < 100
21 | COc1c(Nc2cc(C)[nH]n2)nc(Sc2ccc(S(=O)(=O)C(C)(C)c3cccc(Cl)c3F)cc2F)nc1N1CCN(CCN(C)C)CC1 | < 100
22 | COc1c(Nc2cc(C)[nH]n2)nc(Sc2ccc(S(=O)(=O)C(C)(C)c3cc(F)cc(Cl)c3F)cc2F)nc1N1CCOCC1 | < 100
23 | COc1c(Nc2cc(C)[nH]n2)nc(Sc2ccc(S(=O)(=O)C(F)c3cc(F)cc([N+](=O)[O-])c3F)cc2F)nc1N1CCOCC1 (centres unmarked) | < 100
24 | COc1c(Nc2cc(C)[nH]n2)nc(Sc2ccc(S(=O)(=O)C(C)(C)c3cccc([N+](=O)[O-])c3F)cc2F)nc1N1CCC(N(C)C)CC1 | < 100
25 | COc1c(Nc2cc(C)[nH]n2)nc(Sc2ccc(S(=O)(=O)C(C)(C)c3cccc([N+](=O)[O-])c3F)cc2F)nc1N1CCN(C)CC1 | < 100
26 | COc1c(Nc2cc(C)[nH]n2)nc(Sc2ccc(S(=O)(=O)C(C)(C)c3cccc([N+](=O)[O-])c3F)cc2F)nc1N1CCNCC1 | < 100
27 | COc1c(Nc2cc(C)[nH]n2)nc(Sc2ccc(S(=O)(=O)C(C)(C)c3cccc([N+](=O)[O-])c3F)cc2F)nc1N1CCCC(N(C)C)C1 (centres unmarked) | < 100
28 | COc1c(Nc2cc(C)[nH]n2)nc(Sc2ccc(S(=O)(=O)C(C)(C)c3cc(F)cc([N+](=O)[O-])c3F)cc2F)nc1N1CCC(CCN(C)C)CC1 | < 100
29 | COc1c(Nc2cc(C)[nH]n2)nc(Sc2ccc(S(=O)(=O)C(C)(C)c3cccc(Cl)c3F)cc2F)nc1N1CCC(CCN(C)C)CC1 | < 100

The remaining lines, values ahead:

Row | IC50 [nM] | Compound
30 | < 100 | COc1c(Nc2cc(C)[nH]n2)nc(Sc2ccc(S(=O)(=O)Cc3cccc(N)c3F)cc2F)nc1N1CCOCC1
31 | < 100 | COc1c(Nc2cc(C)[nH]n2)nc(Sc2ccc(S(=O)(=O)C(F)c3cccc([N+](=O)[O-])c3F)cc2F)nc1N1CCOCC1 (centres unmarked)
32 | < 100 | COC(=O)c1cccc(CS(=O)(=O)c2ccc(Sc3nc(Nc4cc(C)[nH]n4)c(OC)c(N4CCOCC4)n3)c(F)c2)c1F
33 | < 100 | COc1c(Nc2cc(C)[nH]n2)nc(Sc2ccc(S(=O)(=O)Cc3cccc(C(=O)N(C)C)c3F)cc2F)nc1N1CCOCC1
34 | < 100 | COc1c(Nc2cc(C)[nH]n2)nc(Sc2ccc(S(=O)(=O)Cc3cccc(C(N)=O)c3F)cc2F)nc1N1CCOCC1
35 | < 100 | COc1c(Nc2cc(C)[nH]n2)nc(Sc2ccc(S(=O)(=O)Cc3cccc([N+](=O)[O-])c3F)cc2F)nc1N1CCOC[C@@H]1CO
36 | < 100 | COc1c(Nc2cc(C)[nH]n2)nc(Sc2ccc(S(=O)(=O)Cc3cccc(I)c3F)cc2F)nc1N1CCOCC1
37 | < 100 | COc1c(Nc2cc(C)[nH]n2)nc(Sc2ccc(S(=O)(=O)c3cccc([N+](=O)[O-])c3)cc2F)nc1N1CCOCC1
38 | < 100 | COc1c(Nc2cc(C)[nH]n2)nc(Sc2ccc(S(=O)(=O)c3cccc([N+](=O)[O-])c3F)cc2F)nc1N1CCOCC1
39 | < 100 | COc1c(Nc2cc(C)[nH]n2)nc(Sc2ccc(C#Cc3cccc([N+](=O)[O-])c3F)cc2F)nc1N1CCOCC1
40 | < 100 | COc1c(Nc2cc(C)[nH]n2)nc(Sc2ccc(/C=C/c3cccc([N+](=O)[O-])c3F)cc2F)nc1N1CCOCC1
41 | < 100 | COc1c(Nc2cc(C)[nH]n2)nc(Sc2ccc(CCc3cccc([N+](=O)[O-])c3F)cc2F)nc1N1CCOCC1
42 | 100 to 1000 | COc1c(Nc2cc(C)[nH]n2)nc(Sc2ccc(-c3cc4cccc([N+](=O)[O-])c4o3)cc2F)nc1N1CCOCC1
43 | < 100 | COc1c(Nc2cc(C)[nH]n2)nc(Sc2ccc(C(=O)Cc3cccc([N+](=O)[O-])c3F)cc2F)nc1N1CCOCC1
44 | < 100 | COc1c(Nc2cc(C)[nH]n2)nc(Sc2ccc(C(=O)Oc3cccc([N+](=O)[O-])c3F)cc2F)nc1N1CCOCC1
45 | < 100 | COc1c(Nc2cc(C)[nH]n2)nc(Sc2ccc(S(=O)(=O)C(C)(C)c3cccc([N+](=O)[O-])c3F)cc2F)nc1N1CCOCC1
46 | 100 to 1000 | COc1c(Nc2cc(C)[nH]n2)nc(Sc2ccc(NC(=O)c3cccc([N+](=O)[O-])c3)cc2F)nc1N1CCOCC1
47 | < 100 | COc1c(Nc2cc(C)[nH]n2)nc(Sc2ccc(S(=O)(=O)C(F)c3cccc(C#N)c3F)cc2F)nc1N1CCOCC1 (centres unmarked)
48 | < 100 | COc1c(Nc2cc(C)[nH]n2)nc(Sc2ccc(S(=O)(=O)Nc3cccc([N+](=O)[O-])c3)cc2F)nc1N1CCOCC1
49 | < 100 | COc1c(Nc2cc(C)[nH]n2)nc(Sc2ccc(NC(=O)Cc3cccc([N+](=O)[O-])c3F)cc2F)nc1N1CCOCC1
50 | < 100 | COc1c(Nc2cc(C)[nH]n2)nc(Sc2ccc(S(=O)(=O)CCc3cccc([N+](=O)[O-])c3F)cc2F)nc1N1CCOCC1
